Assay results: patent publication US8476449B2, “Radioactive iodine labeled organic compound or salt thereof” (Nihon Medi-Physics Co., Ltd., priority 2010, dated 2013)
Read-outs that look alike come from different tables or passages of the source. One block for each molecule: values may come before it.

Columns and labels:
tau protein aggregate = tau protein aggregate (Homo sapiens, UniProt P10636); conditions: tau 0.37 μmol/L, incubated 1 to 1.5 hours, PD-10 column
Description: Mixed solutions of a tau protein aggregate (final concentration 0.37 μmol/L, prepared in Example 9) or an non-aggregated tau protein (final concentration 0.37 μmol/L) and radioactive iodine-labeled compound 1 (2.0 kBq (0.055 μCi)), radioactive iodine-labeled compound 2 (20 kBq (0.55 μCi)) or radioactive iodine-labeled form 3 (2.0 kBq (0.055 μCi)) were incubated for 1 hour to 1.5 hours, and then subjected to size exclusion chromatography (PD-10 column (GE Healthcare Japan), eluent: phosphate buffered-saline (PBS)). Subsequently, the radioactivity of an eluted fraction of the tau protein aggregate or the non-aggregated tau protein was measured in a γ counter.

[1] = mice
Description: Mice were decapitated after 2, 10, 30, and 60 minutes, and then each organ was then removed after blood collection, and radiation counts were measured in a γ counter.

Aβ42 aggregate = target: T1, Aβ42 aggregate (Homo sapiens, UniProt P05067); experiment: Evaluation experiment of binding to amyloid β (filter radioactivity); conditions: Aβ42 aggregate 30 nmol/L, incubation 3 hours
T1 construct: Aβ (1-42) peptide; purchased Peptide Institute, Inc
Description: 0.5 mg of Aβ (1-42) peptide (purchased from Peptide Institute, Inc.) was dissolved in 2 mL of a PBS buffer containing 1 mmol/L of EDTA and incubated at 37° C. for 42 hours, thus preparing an Aβ42 aggregate. A glass tube was charged with a 10 vol % ethanol aqueous solution (900 μL), Aβ42 aggregate (50 μL, final concentration 30 nmol/L), and radioactive iodine-labeled compound 1, radioactive iodine-labeled compound 2, or radioactive iodine-labeled compound 3 (each 50 μL, 0.018-0.097 μCi), and incubation was carried out for 3 hours. B/F separation was carried out using a cell harvester (Brandel, M-24), and the radioactivity on the filter was measured in a γ counter. The proportion (%) of the radioactivity count on the filter relative to the radioactivity count of each sample used was determined, and binding of each compound to the Aβ42 aggregate was evaluated.
As a control, 4-dimethylamino-4′-iodochalcone (hereinafter, called a chalcone derivative) was prepared in accordance with a method described in the literature (Ono et al., Bioorg Med Chem, 15, 6802-6809, 2007), and the same experiment was carried out (radioactivity count in sample: […]-0.37 kBq (0.023-0.01 μCi)).

[2] = 2 minutes after tail vein administration
[3] = 10 minutes after tail vein administration
[4] = 30 minutes after tail vein administration
[5] = 60 minutes after tail vein administration

T1 sequence (P05067 672-713 limits assumed): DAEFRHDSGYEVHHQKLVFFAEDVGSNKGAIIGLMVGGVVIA
Sequence of tau protein aggregate (P10636 1-441 isoform P10636-8): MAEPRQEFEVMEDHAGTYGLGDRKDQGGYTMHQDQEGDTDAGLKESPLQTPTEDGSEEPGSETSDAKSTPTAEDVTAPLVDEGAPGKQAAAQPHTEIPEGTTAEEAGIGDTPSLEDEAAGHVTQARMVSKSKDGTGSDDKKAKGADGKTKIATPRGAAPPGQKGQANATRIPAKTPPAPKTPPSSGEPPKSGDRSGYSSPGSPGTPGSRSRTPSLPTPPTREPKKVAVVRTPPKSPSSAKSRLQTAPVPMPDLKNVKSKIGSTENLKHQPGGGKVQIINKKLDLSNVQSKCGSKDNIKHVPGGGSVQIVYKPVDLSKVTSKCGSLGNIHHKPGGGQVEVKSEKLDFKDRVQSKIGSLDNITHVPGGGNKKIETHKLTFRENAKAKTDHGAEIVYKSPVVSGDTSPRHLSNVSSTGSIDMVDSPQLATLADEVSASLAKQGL

SMILES: CCOC(=O)CN1C(=O)/C(=C/c2ccc(-c3cccc([125I])c3)o2)SC1=S [Radioactive iodine-labeled compound 1, (Z)-Ethyl-2-(5-((5-(3-(^125I)iodophenyl)furan-2-yl)methylene)-4-oxo-2-thioxothiazolidin-3-yl) acetate]
Radioactivity of eluted fraction: aggregated tau vs non aggregated tau vs buffer (tau protein aggregate): specifically binding to a tau protein aggregate
Amount of radioactivity in organ: Blood [1, 2]: 6.70 ± 0.53 % ID/g
Amount of radioactivity in organ: Blood [1, 3]: 3.58 ± 0.37 % ID/g
Amount of radioactivity in organ: Blood [1, 4]: 2.27 ± 0.44 % ID/g
Amount of radioactivity in organ: Blood [1, 5]: 1.59 ± 0.14 % ID/g
Amount of radioactivity in organ: Brain [1, 2]: 0.23 ± 0.02 % ID/g
Amount of radioactivity in organ: Brain [1, 3]: 0.16 ± 0.01 % ID/g
Amount of radioactivity in organ: Brain [1, 4]: 0.15 ± 0.03 % ID/g
Amount of radioactivity in organ: Brain [1, 5]: 0.11 ± 0.02 % ID/g
Amount of radioactivity in organ: Heart [1, 2]: 9.41 ± 0.49 % ID/g
Amount of radioactivity in organ: Heart [1, 3]: 5.05 ± 0.39 % ID/g
Amount of radioactivity in organ: Heart [1, 4]: 2.38 ± 0.38 % ID/g
Amount of radioactivity in organ: Heart [1, 5]: 1.39 ± 0.19 % ID/g
Amount of radioactivity in organ: Intestine [1, 2]: 1.77 ± 0.33 % ID/g
Amount of radioactivity in organ: Intestine [1, 3]: 7.97 ± 1.24 % ID/g
Amount of radioactivity in organ: Intestine [1, 4]: 15.1 ± 1.82 % ID/g
Amount of radioactivity in organ: Intestine [1, 5]: 21.0 ± 2.73 % ID/g
Amount of radioactivity in organ: Kidney [1, 2]: 8.50 ± 0.83 % ID/g
Amount of radioactivity in organ: Kidney [1, 3]: 7.64 ± 0.69 % ID/g
Amount of radioactivity in organ: Kidney [1, 4]: 6.42 ± 1.17 % ID/g
Amount of radioactivity in organ: Kidney [1, 5]: 3.91 ± 0.18 % ID/g
Amount of radioactivity in organ: Liver [1, 2]: 43.1 ± 2.07 % ID/g
Amount of radioactivity in organ: Liver [1, 3]: 29.5 ± 2.17 % ID/g
Amount of radioactivity in organ: Liver [1, 4]: 14.7 ± 2.27 % ID/g
Amount of radioactivity in organ: Liver [1, 5]: 11.3 ± 0.87 % ID/g
Amount of radioactivity in organ: Lung [1, 2]: 13.6 ± 1.00 % ID/g
Amount of radioactivity in organ: Lung [1, 3]: 4.44 ± 0.52 % ID/g
Amount of radioactivity in organ: Lung [1, 4]: 2.31 ± 0.46 % ID/g
Amount of radioactivity in organ: Lung [1, 5]: 1.56 ± 0.22 % ID/g
Amount of radioactivity in organ: Pancreas [1, 2]: 1.74 ± 0.19 % ID/g
Amount of radioactivity in organ: Pancreas [1, 3]: 1.75 ± 0.18 % ID/g
Amount of radioactivity in organ: Pancreas [1, 4]: 1.16 ± 0.17 % ID/g
Amount of radioactivity in organ: Pancreas [1, 5]: 0.73 ± 0.08 % ID/g
Amount of radioactivity in organ: Spleen [1, 2]: 6.70 ± 0.54 % ID/g
Amount of radioactivity in organ: Spleen [1, 3]: 4.11 ± 0.80 % ID/g
Amount of radioactivity in organ: Spleen [1, 4]: 2.66 ± 0.84 % ID/g
Amount of radioactivity in organ: Spleen [1, 5]: 1.94 ± 0.40 % ID/g
Amount of radioactivity in organ: Stomach [1, 2]: 0.75 ± 0.17 % ID/g
Amount of radioactivity in organ: Stomach [1, 3]: 1.53 ± 0.44 % ID/g
Amount of radioactivity in organ: Stomach [1, 4]: 3.65 ± 0.78 % ID/g
Amount of radioactivity in organ: Stomach [1, 5]: 4.51 ± 0.38 % ID/g
Binding to the Aβ42 aggregate (proportion of radioactivity count on the filter) (Aβ42 aggregate): significantly lower

SMILES: CCOC(=O)CN1C(=O)/C(=C/c2ccc(-c3cccc([125I])c3)o2)NC1=S [Radioactive iodine-labeled compound 2, (Z)-Ethyl-2-(4-((5-(3-(^125I)iodophenyl)furan-2-yl)methylene)-5-oxo-2-thioxoimidazolidin-l-yl) acetate]
Radioactivity of eluted fraction: aggregated tau vs non aggregated tau vs buffer (tau protein aggregate): specifically binding to a tau protein aggregate
Amount of radioactivity in organ: Blood [1, 2]: 9.49 ± 0.82 % ID/g
Amount of radioactivity in organ: Blood [1, 3]: 2.38 ± 0.88 % ID/g
Amount of radioactivity in organ: Blood [1, 4]: 1.79 ± 0.11 % ID/g
Amount of radioactivity in organ: Blood [1, 5]: 1.50 ± 0.10 % ID/g
Amount of radioactivity in organ: Brain [1, 2]: 0.57 ± 0.07 % ID/g
Amount of radioactivity in organ: Brain [1, 3]: 0.32 ± 0.02 % ID/g
Amount of radioactivity in organ: Brain [1, 4]: 0.18 ± 0.02 % ID/g
Amount of radioactivity in organ: Brain [1, 5]: 0.10 ± 0.03 % ID/g
Amount of radioactivity in organ: Heart [1, 2]: 7.02 ± 1.23 % ID/g
Amount of radioactivity in organ: Heart [1, 3]: 2.05 ± 0.29 % ID/g
Amount of radioactivity in organ: Heart [1, 4]: 1.19 ± 0.39 % ID/g
Amount of radioactivity in organ: Heart [1, 5]: 1.44 ± 0.39 % ID/g
Amount of radioactivity in organ: Intestine [1, 2]: 1.85 ± 0.26 % ID/g
Amount of radioactivity in organ: Intestine [1, 3]: 7.88 ± 1.46 % ID/g
Amount of radioactivity in organ: Intestine [1, 4]: 17.7 ± 2.22 % ID/g
Amount of radioactivity in organ: Intestine [1, 5]: 23.4 ± 5.37 % ID/g
Amount of radioactivity in organ: Kidney [1, 2]: 9.21 ± 0.68 % ID/g
Amount of radioactivity in organ: Kidney [1, 3]: 9.11 ± 1.15 % ID/g
Amount of radioactivity in organ: Kidney [1, 4]: 3.86 ± 0.85 % ID/g
Amount of radioactivity in organ: Kidney [1, 5]: 2.68 ± 0.75 % ID/g
Amount of radioactivity in organ: Liver [1, 2]: 32.2 ± 1.67 % ID/g
Amount of radioactivity in organ: Liver [1, 3]: 32.1 ± 2.09 % ID/g
Amount of radioactivity in organ: Liver [1, 4]: 22.6 ± 3.42 % ID/g
Amount of radioactivity in organ: Liver [1, 5]: 20.2 ± 1.93 % ID/g
Amount of radioactivity in organ: Lung [1, 2]: 10.8 ± 1.28 % ID/g
Amount of radioactivity in organ: Lung [1, 3]: 3.89 ± 0.32 % ID/g
Amount of radioactivity in organ: Lung [1, 4]: 2.09 ± 0.43 % ID/g
Amount of radioactivity in organ: Lung [1, 5]: 1.70 ± 0.45 % ID/g
Amount of radioactivity in organ: Pancreas [1, 2]: 1.79 ± 0.27 % ID/g
Amount of radioactivity in organ: Pancreas [1, 3]: 0.98 ± 0.08 % ID/g
Amount of radioactivity in organ: Pancreas [1, 4]: 0.56 ± 0.10 % ID/g
Amount of radioactivity in organ: Pancreas [1, 5]: 0.45 ± 0.08 % ID/g
Amount of radioactivity in organ: Spleen [1, 2]: 9.16 ± 2.04 % ID/g
Amount of radioactivity in organ: Spleen [1, 3]: 12.2 ± 2.28 % ID/g
Amount of radioactivity in organ: Spleen [1, 4]: 13.6 ± 4.29 % ID/g
Amount of radioactivity in organ: Spleen [1, 5]: 10.0 ± 2.49 % ID/g
Amount of radioactivity in organ: Stomach [1, 2]: 0.93 ± 0.36 % ID/g
Amount of radioactivity in organ: Stomach [1, 3]: 3.39 ± 3.03 % ID/g
Amount of radioactivity in organ: Stomach [1, 4]: 3.39 ± 2.98 % ID/g
Amount of radioactivity in organ: Stomach [1, 5]: 5.32 ± 2.68 % ID/g
Binding to the Aβ42 aggregate (proportion of radioactivity count on the filter) (Aβ42 aggregate): significantly lower

Binding to the Aβ42 aggregate (proportion of radioactivity count on the filter) (Aβ42 aggregate): exhibited binding to the Aβ42 aggregate
SMILES: CN(C)c1ccc(/C=C/C(=O)c2ccc(I)cc2)cc1 [chalcone derivative, 4-dimethylamino-4′-iodochalcone, reference compound]
